Among the test systems are BT-549; NCI-H522; UACC-257; HT-29; SF-539; HCC 2998; RXF 393; MDA-N; NCI-H23; PC-3; SNB-19; MCF7; SK-MEL-5; CCRF-CEM; T47D; 786-0; MOLT-4; OVCAR-3; EKVX; SN12C.
Common to all, as to experiment: NCI anticancer screen, dose series, 48 h

SMILES strings stand for the structures.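 Dose response: 5 concentrations. Exposure: 48 h. Format: 96-well plates. Endpoint: linear interpolation; highest concentration if not reached. The concentration for 50% growth inhibition is given as GI50.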 Activity calls are given as the source filed them. No stated cut-off is given here; in the data, active = GI50 up to about 1.1 µM and inactive = higher.

Turning to `Cc1nnc(SCc2nc(C#N)c(C#N)nc2CSc2nnc(C)s2)s1`, the GI50 in the test on BT-549 was 16.2 µM (inactive); in the test with NCI-H522, 3.34 µM (inactive); in the test with UACC-257, 13.8 µM (inactive); with HT-29 it was 18.2 µM (inactive); in the test on SF-539, 19.6 µM (inactive); with HCC 2998, 16.5 µM (inactive). In addition, the GI50 was 6.76 µM (inactive) in the test with RXF 393; 17.6 µM (inactive) with MDA-N; 19.1 µM (inactive) in the test with NCI-H23; 14.8 µM (inactive) in the test on PC-3; 47.5 µM (inactive) in the test with SNB-19; 12.3 µM (inactive) with MCF7. The GI50 in the test with SK-MEL-5 was 15 µM (inactive); in the test with CCRF-CEM, 1.98 µM (inactive); with T47D, 5.73 µM (inactive); in the test with 786-0, 9.48 µM (inactive); in the test with MOLT-4, 2.51 µM (inactive); in the test on OVCAR-3, 6.78 µM (inactive). Moreover, the GI50 in the test on EKVX is 14.7 µM (inactive); in the test on SN12C it was 17.3 µM (inactive).
On to `COC(=O)C1=C(C)N2[C@H](C(=O)O)CS[C@@]2(C)[C@H](C(=O)OC)[C@H]1c1cccc([N+](=O)[O-])c1`, for which the GI50 in the test with BT-549, with NCI-H522, in the test with UACC-257, in the test with HT-29, in the test with SF-539 and in the test with HCC 2998 was > 100 µM (inactive) each time. Also, the GI50 with RXF 393, with MDA-N, in the test on NCI-H23, with PC-3, in the test with SNB-19 and in the test on MCF7 was > 100 µM (inactive) throughout. Moreover, the GI50 in the test on SK-MEL-5, in the test on CCRF-CEM, in the test on T47D, with 786-0, in the test with MOLT-4 and in the test on OVCAR-3 was > 100 µM (inactive) each time. Also, the GI50 with EKVX and with SN12C was > 100 µM (inactive) in each case.
For the compound `COc1ccc(C2CC(C)(O)Oc3cc4c(cc32)OCO4)cc1` (stereo not given), the GI50 in the test with BT-549 is 17.3 µM (inactive); in the test on NCI-H522 it was 11.2 µM (inactive); with UACC-257, 32.4 µM (inactive); in the test on HT-29 it was 24.9 µM (inactive); with SF-539 it was 38.9 µM (inactive); in the test on HCC 2998, 47.6 µM (inactive). For the same compound, the GI50 in the test with RXF 393 is 0.0855 µM (active); in the test with MDA-N, 10.5 µM (inactive); with NCI-H23, 33.7 µM (inactive); in the test with PC-3, 18.7 µM (inactive); in the test on SNB-19 it was 38.4 µM (inactive); in the test with MCF7 it was 34.9 µM (inactive). Moreover, the GI50 was 25.4 µM (inactive) in the test on SK-MEL-5; 19.3 µM (inactive) in the test on CCRF-CEM; 2.02 µM (inactive) with T47D; 37.2 µM (inactive) in the test on 786-0; 22.1 µM (inactive) with MOLT-4; 32.3 µM (inactive) in the test on OVCAR-3. The results for the GI50 in the test with EKVX and in the test with SN12C were 40.2 µM (inactive) and 45.8 µM (inactive), respectively.
Turning to `O=C1NC(Nc2ccccc2Cl)=N/C1=C\c1c(Cl)cccc1Cl`, the GI50 with BT-549 is 34.1 µM (inactive); with NCI-H522, 18.7 µM (inactive); with UACC-257, 25.4 µM (inactive); in the test on HT-29 it was 31.6 µM (inactive); in the test on SF-539, 51.5 µM (inactive); with HCC 2998 it was 21.9 µM (inactive). Besides, the GI50 in the test on RXF 393 was 23.4 µM (inactive); in the test with MDA-N it was 16.5 µM (inactive); in the test on NCI-H23 it was 37.1 µM (inactive); in the test with PC-3 it was 25.1 µM (inactive); in the test with SNB-19, 44.1 µM (inactive); in the test with MCF7 it was 28.7 µM (inactive). Besides, the GI50 in the test with SK-MEL-5 is 20.3 µM (inactive); with CCRF-CEM, 34.4 µM (inactive); with T47D, 28.6 µM (inactive); with 786-0, 33.4 µM (inactive); in the test with MOLT-4, 27 µM (inactive); with OVCAR-3, 27 µM (inactive). The GI50 in the test with EKVX was 31 µM (inactive); with SN12C, 28.2 µM (inactive).
Consider `COC(=O)Cc1c(-c2[nH]c3ccccc3c2CC(=O)OC)[nH]c2ccccc12`, for which the GI50 in the test on BT-549 is > 57.1 µM (inactive); in the test with NCI-H522 it was > 28.6 µM (inactive); in the test on UACC-257, > 56.1 µM (inactive); in the test on HT-29, > 59.3 µM (inactive); in the test on SF-539, 67.5 µM (inactive); in the test on HCC 2998, > 57 µM (inactive). Further, the GI50 in the test on RXF 393 is 30.3 µM (inactive); in the test with MDA-N, > 53.8 µM (inactive); with NCI-H23, > 55.5 µM (inactive); in the test with PC-3, > 49 µM (inactive); in the test on SNB-19, 53.5 µM (inactive); in the test on MCF7, > 41.1 µM (inactive). The GI50 in the test on SK-MEL-5 is > 52.7 µM (inactive); with CCRF-CEM it was > 25.2 µM (inactive); in the test on T47D, 2.13 µM (inactive); in the test on 786-0 it was 33.7 µM (inactive); in the test on MOLT-4, > 47.4 µM (inactive); in the test with OVCAR-3, 1.41 µM (inactive). In addition, the figures for the GI50 with EKVX and with SN12C were 39.4 µM (inactive) and > 59.4 µM (inactive), respectively.
As for `O=C(OCc1ccccc1)C1(N2CN(C3(C(=O)OCc4ccccc4)CCCC3)CN(C3(C(=O)OCc4ccccc4)CCCC3)C2)CCCC1`, the GI50 in the test with BT-549, in the test on NCI-H522, in the test on UACC-257, in the test on HT-29, with SF-539 and with HCC 2998 was > 10 µM (inactive) throughout. Further, the GI50 with RXF 393, with MDA-N, in the test on NCI-H23, with PC-3, in the test with SNB-19 and in the test with MCF7 was > 10 µM (inactive) each time. Besides, the GI50 with SK-MEL-5, with CCRF-CEM, in the test on T47D, with 786-0, in the test on MOLT-4 and in the test with OVCAR-3 was > 10 µM (inactive) in each case. For the same compound, the GI50 with EKVX and in the test on SN12C was > 10 µM (inactive) each time.
Consider `COc1ccc2nc3cc(Cl)ccc3c(Nc3ccc(O)c(CN4CCN(C)CC4)c3)c2c1`, for which the GI50 was 20.3 µM (inactive) in the test with BT-549; 1.78 µM (inactive) in the test on NCI-H522; 1.86 µM (inactive) in the test with UACC-257; 1.67 µM (inactive) with HT-29; 1.79 µM (inactive) with SF-539; 1.19 µM (inactive) in the test with HCC 2998. For the same compound, the GI50 with RXF 393 was 1.69 µM (inactive); with MDA-N it was 1.67 µM (inactive); in the test on NCI-H23, 1.89 µM (inactive); with PC-3 it was 1.67 µM (inactive); in the test on SNB-19, 2.43 µM (inactive); in the test on MCF7, 1.64 µM (inactive). In addition, the GI50 was 1.73 µM (inactive) in the test with SK-MEL-5; 0.276 µM (active) in the test on CCRF-CEM; 2.09 µM (inactive) with T47D; 1.5 µM (inactive) with 786-0; 1.93 µM (inactive) in the test on MOLT-4; 1.92 µM (inactive) in the test with OVCAR-3. For the same compound, the results for the GI50 in the test with EKVX and in the test with SN12C were 1.74 µM (inactive) and 1.85 µM (inactive), respectively.
As to `CCCCCCCCCCC/C=C(/C(=O)CCCO[Si](C)(C)C(C)(C)C)C(=O)OC`, the GI50 in the test on BT-549, in the test on NCI-H522, with UACC-257, in the test on HT-29, in the test with SF-539 and in the test with HCC 2998 was > 100 µM (inactive) in each case. In addition, the GI50 in the test on RXF 393, in the test with MDA-N, in the test with NCI-H23, in the test with PC-3, in the test with SNB-19 and in the test with MCF7 was > 100 µM (inactive) in each case. In addition, the GI50 in the test with SK-MEL-5, in the test on CCRF-CEM, with T47D, in the test with 786-0, in the test on MOLT-4 and with OVCAR-3 was > 100 µM (inactive) each time. Further, the GI50 in the test with EKVX and in the test with SN12C was > 100 µM (inactive) throughout.
Take `CCOc1cc(NC(C)=O)ccc1C(=O)NNS(=O)(=O)c1ccc(Cl)cc1Cl`: the GI50 with BT-549, in the test on NCI-H522, with UACC-257, with HT-29, in the test on SF-539 and in the test on HCC 2998 was > 50 µM (inactive) in each case. Besides, the GI50 in the test on RXF 393 was > 50 µM (inactive); in the test on MDA-N, 10.6 µM (inactive); in the test with NCI-H23, > 50 µM (inactive); in the test with PC-3 it was > 50 µM (inactive); in the test with SNB-19, > 50 µM (inactive); with MCF7, 26.4 µM (inactive). Besides, the GI50 was 14.6 µM (inactive) in the test with SK-MEL-5; > 50 µM (inactive) in the test on CCRF-CEM; > 50 µM (inactive) in the test on T47D; > 50 µM (inactive) in the test on 786-0; 8.75 µM (inactive) in the test with MOLT-4; > 50 µM (inactive) in the test on OVCAR-3. The GI50 in the test on EKVX and with SN12C was > 50 µM (inactive) each time.
Regarding `NC(C(=O)O)c1cc(O)no1` (stereo not given), the GI50 in the test on BT-549 was > 42.5 µM (inactive); in the test on NCI-H522 it was > 100 µM (inactive); with UACC-257, > 100 µM (inactive); in the test on HT-29, > 100 µM (inactive); with SF-539, > 100 µM (inactive); in the test on HCC 2998, > 100 µM (inactive). Moreover, the GI50 with RXF 393, in the test on MDA-N, in the test with NCI-H23, with PC-3, with SNB-19 and with MCF7 was > 100 µM (inactive) in each case. The GI50 in the test with SK-MEL-5, in the test on CCRF-CEM, with T47D, in the test with 786-0, in the test on MOLT-4 and in the test on OVCAR-3 was > 100 µM (inactive) in each case. For the same compound, the GI50 in the test on EKVX and in the test with SN12C was > 100 µM (inactive) throughout.
